Measured values: patent US8476029B2, “MCPP immunoassay” (priority 2009, dated 2013)
Converted amounts (≈) assume the structure as drawn. “And” between values parts separate entries of the source, which are not always exact repeats. Equal values may be shown once. Read-outs that look alike come from different tables or passages of the source.

Assays:
[1] = test system: Trazodone antibody (antibody raised from the trazodone-derived immunogen); assay type: binding, sheep; conditions: for % CR (percentage cross-reactivity): based on Trazodone (100%)
Description: (§1) The resulting immunogens were administered separately to adult sheep on a monthly basis to provide target-specific polyclonal antisera. IgG was extracted from the antisera via caprylic acid/ammonium sulphate precipitation of immunoglobulin. Microtitre plates (Thermo Scientific, 95029180) were coated with antibody (125 μl) in coating buffer (10 mM Tris pH 8.5) at 37° C. for 2 hours. […] The plates were then washed. […] The plates were then washed and 125 μl of TMB (Randox, 4380-15) was added to each well and left at room temperature for 20 minutes in the dark. The reaction was stopped using 125 μl of 0.2M sulphuric acid. The absorbances were then read at 450 nm with an ELISA microplate reader (BIO-TEK Instruments, EL340) and the means calculated. Antibody specificity and sensitivity were then determined.

[2] = test system: Generic antibody (antibody raised from the mCPP-derived immunogen); assay type: binding, sheep; conditions: for % CR (percentage cross-reactivity): based on Nefazodone (100%); for IC50 (standard concentration which produces 50% B/B0): generic antibody
Description: as §1

[3] = humans, urine; cited from earlier work

With `Clc1cccc(N2CCNCC2)c1` [mCPP, 1-(3-chlorophenyl)piperazine] the “% CR (percentage cross-reactivity)” value [1] was 0.68%, the “% B/B0” value ([1]; standard conc 0.156 ng/ml) was 98% and the “A450 (absorbance at 450 nm)” value ([1]; standard conc 0.156 ng/ml) was 1.721. For the same compound, the “% B/B0” value ([1]; standard conc 0.313 ng/ml) was 100%, the “A450 (absorbance at 450 nm)” value ([1]; standard conc 0.313 ng/ml) was 1.755 and the “% B/B0” value ([1]; standard conc 0.625 ng/ml) was 100%. The “A450 (absorbance at 450 nm)” value ([1]; standard conc 0.625 ng/ml) was 1.756, the “% B/B0” value ([1]; standard conc 1.250 ng/ml) was 100% and the “A450 (absorbance at 450 nm)” value ([1]; standard conc 1.250 ng/ml) was 1.759. The “% B/B0” value ([1]; standard conc 2.500 ng/ml) was 101%, the “A450 (absorbance at 450 nm)” value ([1]; standard conc 2.500 ng/ml) was 1.782 and the “% B/B0” value ([1]; standard conc 5.000 ng/ml) was 103%. The “A450 (absorbance at 450 nm)” value ([1]; standard conc 5.000 ng/ml) was 1.814, the “% B/B0” value ([1]; standard conc 10.000 ng/ml) was 106% and the “A450 (absorbance at 450 nm)” value ([1]; standard conc 10.000 ng/ml) was 1.857. The “% CR (percentage cross-reactivity)” value [2] was 46%, the “IC50 (standard concentration which produces 50% B/B0)” value [2] was 8.476 ng/mL (≈ 0.0431 µM) and the “% B/B0” value ([2]; standard conc 0.156 ng/ml) was 85%. For the same compound, the “A450 (absorbance at 450 nm)” value ([2]; standard conc 0.156 ng/ml) was 1.821, the “% B/B0” value ([2]; standard conc 0.313 ng/ml) was 79% and the “A450 (absorbance at 450 nm)” value ([2]; standard conc 0.313 ng/ml) was 1.679. The “% B/B0” value ([2]; standard conc 0.625 ng/ml) was 72%, the “A450 (absorbance at 450 nm)” value ([2]; standard conc 0.625 ng/ml) was 1.534 and the “% B/B0” value ([2]; standard conc 1.250 ng/ml) was 65%. The “A450 (absorbance at 450 nm)” value ([2]; standard conc 1.250 ng/ml) was 1.380, the “% B/B0” value ([2]; standard conc 2.500 ng/ml) was 55% and the “A450 (absorbance at 450 nm)” value ([2]; standard conc 2.500 ng/ml) was 1.183. For the same compound, the “% B/B0” value ([2]; standard conc 5.000 ng/ml) was 48%, the “A450 (absorbance at 450 nm)” value ([2]; standard conc 5.000 ng/ml) was 1.027 and the “% B/B0” value ([2]; standard conc 10.000 ng/ml) was 42%. The “A450 (absorbance at 450 nm)” value ([2]; standard conc 10.000 ng/ml) was 0.888.

With `CCc1nn(CCCN2CCN(c3cccc(Cl)c3)CC2)c(=O)n1CCOc1ccccc1` [Nefazodone] the “A450 (absorbance at 450 nm)” value [1] was 1.621 and 1.677 and 1.663 and 1.765 and 1.799 and 1.631 and 1.656, the “% CR (percentage cross-reactivity)” value [1] was 1.38% and the “% B/B0” value ([1]; standard conc 0.156 ng/ml) was 97%. The “% B/B0” value ([1]; standard conc 0.313 ng/ml) was 99%, the “% B/B0” value ([1]; standard conc 0.625 ng/ml) was 97% and the “% B/B0” value ([1]; standard conc 1.250 ng/ml) was 100%. For the same compound, the “% B/B0” value ([1]; standard conc 2.500 ng/ml) was 99%, the “% B/B0” value ([1]; standard conc 5.000 ng/ml) was 105% and the “% B/B0” value ([1]; standard conc 10.000 ng/ml) was 107%. For the same compound, the “% CR (percentage cross-reactivity)” value [2] was 100%, the “IC50 (standard concentration which produces 50% B/B0)” value [2] was 3.901 ng/mL (≈ 0.0083 µM) and the “% B/B0” value ([2]; standard conc 0.156 ng/ml) was 91%. The “% B/B0” value ([2]; standard conc 0.313 ng/ml) was 83%, the “% B/B0” value ([2]; standard conc 0.625 ng/ml) was 73% and the “% B/B0” value ([2]; standard conc 1.250 ng/ml) was 58%. The “% B/B0” value ([2]; standard conc 2.500 ng/ml) was 46%, the “% B/B0” value ([2]; standard conc 5.000 ng/ml) was 34% and the “% B/B0” value ([2]; standard conc 10.000 ng/ml) was 24%. The “mCPP as share of total metabolites (minor urinary metabolite of nefazodone)” value [3] was “less than 1%”.

With `O=c1n(CCCN2CCN(c3cccc(Cl)c3)CC2)nc2ccccn12` [Trazodone, 2-(3-[4-(3-chlorophenyl)piperazin-1-yl]propyl)-[1,2,4]triazolo[4,3-α]pyridin-3(2H)-one] the “% CR (percentage cross-reactivity)” value [1] was 100%, the “% B/B0” value ([1]; standard conc 0.156 ng/ml) was 47% and the “A450 (absorbance at 450 nm)” value ([1]; standard conc 0.156 ng/ml) was 0.816. For the same compound, the “% B/B0” value ([1]; standard conc 0.313 ng/ml) was 33%, the “A450 (absorbance at 450 nm)” value ([1]; standard conc 0.313 ng/ml) was 0.570 and the “% B/B0” value ([1]; standard conc 0.625 ng/ml) was 21%. For the same compound, the “A450 (absorbance at 450 nm)” value ([1]; standard conc 0.625 ng/ml) was 0.375, the “% B/B0” value ([1]; standard conc 1.250 ng/ml) was 14% and the “A450 (absorbance at 450 nm)” value ([1]; standard conc 1.250 ng/ml) was 0.237. The “% B/B0” value ([1]; standard conc 2.500 ng/ml) was 9%, the “A450 (absorbance at 450 nm)” value ([1]; standard conc 2.500 ng/ml) was 0.151 and the “% B/B0” value ([1]; standard conc 5.000 ng/ml) was 5%. For the same compound, the “A450 (absorbance at 450 nm)” value ([1]; standard conc 5.000 ng/ml) was 0.093, the “% B/B0” value ([1]; standard conc 10.000 ng/ml) was 3% and the “A450 (absorbance at 450 nm)” value ([1]; standard conc 10.000 ng/ml) was 0.057. The “% CR (percentage cross-reactivity)” value [2] was 733%, the “% B/B0” value ([2]; standard conc 0.156 ng/ml) was 67% and the “A450 (absorbance at 450 nm)” value ([2]; standard conc 0.156 ng/ml) was 1.456. For the same compound, the “% B/B0” value ([2]; standard conc 0.313 ng/ml) was 58%, the “A450 (absorbance at 450 nm)” value ([2]; standard conc 0.313 ng/ml) was 1.271 and the “% B/B0” value ([2]; standard conc 0.625 ng/ml) was 48%. For the same compound, the “A450 (absorbance at 450 nm)” value ([2]; standard conc 0.625 ng/ml) was 1.041, the “% B/B0” value ([2]; standard conc 1.250 ng/ml) was 35% and the “A450 (absorbance at 450 nm)” value ([2]; standard conc 1.250 ng/ml) was 0.763. The “% B/B0” value ([2]; standard conc 2.500 ng/ml) was 25%, the “A450 (absorbance at 450 nm)” value ([2]; standard conc 2.500 ng/ml) was 0.551 and the “% B/B0” value ([2]; standard conc 5.000 ng/ml) was 18%. For the same compound, the “A450 (absorbance at 450 nm)” value ([2]; standard conc 5.000 ng/ml) was 0.398, the “% B/B0” value ([2]; standard conc 10.000 ng/ml) was 13% and the “A450 (absorbance at 450 nm)” value ([2]; standard conc 10.000 ng/ml) was 0.287.
